Results published in US9695155B2, “Herbicidal substituted pyrimidinyloxy benzene compounds” (E. I. DU PONT DE NEMOURS AND COMPANY, priority 2013, dated 2017).

Key:
Assay in all cases: Test F preemergence
Conditions in all cases: 21 days, scale 0 to 100
bermudagrass = assay type: in vivo, Cynodon dactylon
Text: (§1) Seeds of plant species selected from bermudagrass (Cynodon dactylon), surinam grass (Brachiaria decumbens), large (Lg) crabgrass (Digitaria sanguinalis), crabgrass, naked (naked crabgrass, Digitaria nuda), foxtail, green (green foxtail, Setaria viridis), johnsongrass (Sorghum halepense), kochia (Kochia scoparia), morningglory (pitted morningglory, Ipomoea lacunosa), nutsedge, purple (purple nutsedge, Cyperus rotundus), ragweed (common ragweed, Ambrosia elatior), mustard, black (black mustard, Brassica nigra), guineagrass (Panicum maximum), dallisgrass (Paspalum dilatatum), barnyardgrass (Echinochloa crus-galli), sandbur (southern sandbur, Cenchrus echinatus), sowthistle (common sowthistle, Sonchus oleraceous), Italian ryegrass (Lolium multiflorum), signalgrass (broadleaf signalgrass, Brachiaria platyphylla), dayflower (Virginia (VA) dayflower, Commelina virginica), bluegrass (annual bluegrass, Poa annua), quackgrass (Elytrigia repens), mallow (common mallow, Malva sylvestris), buckwheat, wild (wild buckwheat, Polygonum convolvulus), leafy spurge (Euphorbia esula), chickweed (common chickweed, Stellaria media), wild poinsettia (Euphorbia heterophylla), and pigweed (Amaranthus retroflexus) were planted into a blend of loam soil and sand and treated preemergence with test chemicals formulated in a non-phytotoxic solvent mixture which included a surfactant.
(§2) Treated plants and controls were maintained in a greenhouse for 21 days, after which time all species were compared to controls and visually evaluated. Plant response ratings, summarized in Table F, are based on a scale of 0 to 100 where 0 is no effect and 100 is complete control. A dash (-) response means no test result.

surinam grass = assay type: in vivo, Brachiaria decumbens
Text: as §1, §2

large (Lg) crabgrass = assay type: in vivo, Digitaria sanguinalis
Text: as §1, §2

kochia = assay type: in vivo, Kochia scoparia
Text: as §1, §2

[1] = test system: morningglory (pitted morningglory); assay type: in vivo, Ipomoea lacunosa
Text: as §1, §2

ragweed = assay type: in vivo, Ambrosia elatior
Text: as §1, §2

mustard, black = assay type: in vivo, Brassica nigra
Text: as §1, §2

dallisgrass = assay type: in vivo, Paspalum dilatatum
Text: as §1, §2

barnyardgrass = assay type: in vivo, Echinochloa crus-galli
Text: as §1, §2

sowthistle = assay type: in vivo, Sonchus oleraceous
Text: as §1, §2

Italian ryegrass = assay type: in vivo, Lolium multiflorum
Text: as §1, §2

signalgrass = assay type: in vivo, Brachiaria platyphylla
Text: as §1, §2

bluegrass = assay type: in vivo, Poa annua
Text: as §1, §2

quackgrass = assay type: in vivo, Elytrigia repens
Text: as §1, §2

mallow = assay type: in vivo, Malva sylvestris
Text: as §1, §2

buckwheat, wild = assay type: in vivo, Polygonum convolvulus
Text: as §1, §2

leafy spurge = assay type: in vivo, Euphorbia esula
Text: as §1, §2

chickweed = assay type: in vivo, Stellaria media
Text: as §1, §2

wild poinsettia = assay type: in vivo, Euphorbia heterophylla
Text: as §1, §2

pigweed = assay type: in vivo, Amaranthus retroflexus
Text: as §1, §2

Compound: N#Cc1cccc(Oc2ncc(Cl)cn2)c1-n1cc(C(F)(F)F)cn1 [Compound 58, 3-[(5-chloro-2-pyrimidinyl)oxy]-2-[4-(trifluoromethyl)-1H-pyrazol-1-yl]benzonitrile]
- Plant response rating, Bermudagrass (bermudagrass; 16 g ai/ha): 95
- Plant response rating, Bermudagrass (bermudagrass; 31 g ai/ha): 100
- Plant response rating, Bermudagrass (bermudagrass; 62 g ai/ha): 100
- Plant response rating, Bermudagrass (bermudagrass; 125 g ai/ha): 100
- Plant response rating, Bermudagrass (bermudagrass; 250 g ai/ha): 100
- Plant response rating, Surinam Grass (surinam grass; 16 g ai/ha): 25
- Plant response rating, Surinam Grass (surinam grass; 31 g ai/ha): 60
- Plant response rating, Surinam Grass (surinam grass; 62 g ai/ha): 98
- Plant response rating, Surinam Grass (surinam grass; 125 g ai/ha): 100
- Plant response rating, Surinam Grass (surinam grass; 250 g ai/ha): 100
- Plant response rating, Crabgrass, Large (large (Lg) crabgrass; 16 g ai/ha): 100
- Plant response rating, Crabgrass, Large (large (Lg) crabgrass; 31 g ai/ha): 100
- Plant response rating, Crabgrass, Large (large (Lg) crabgrass; 62 g ai/ha): 100
- Plant response rating, Crabgrass, Large (large (Lg) crabgrass; 125 g ai/ha): 100
- Plant response rating, Crabgrass, Large (large (Lg) crabgrass; 250 g ai/ha): 100
- Plant response rating, Kochia (kochia; 16 g ai/ha): 98
- Plant response rating, Kochia (kochia; 31 g ai/ha): 100
- Plant response rating, Kochia (kochia; 62 g ai/ha): 100
- Plant response rating, Kochia (kochia; 125 g ai/ha): 100
- Plant response rating, Kochia (kochia; 250 g ai/ha): 100
- Plant response rating, Morningglory ([1]; 16 g ai/ha): 100
- Plant response rating, Morningglory ([1]; 31 g ai/ha): 98
- Plant response rating, Morningglory ([1]; 62 g ai/ha): 100
- Plant response rating, Morningglory ([1]; 125 g ai/ha): 100
- Plant response rating, Morningglory ([1]; 250 g ai/ha): 100
- Plant response rating, Ragweed (ragweed; 16 g ai/ha): 60
- Plant response rating, Ragweed (ragweed; 31 g ai/ha): 65
- Plant response rating, Ragweed (ragweed; 62 g ai/ha): 70
- Plant response rating, Ragweed (ragweed; 125 g ai/ha): 75
- Plant response rating, Ragweed (ragweed; 250 g ai/ha): 95
- Plant response rating, Mustard, Black (mustard, black; 16 g ai/ha): 100
- Plant response rating, Mustard, Black (mustard, black; 31 g ai/ha): 100
- Plant response rating, Mustard, Black (mustard, black; 62 g ai/ha): 100
- Plant response rating, Mustard, Black (mustard, black; 125 g ai/ha): 100
- Plant response rating, Mustard, Black (mustard, black; 250 g ai/ha): 100
- Plant response rating, Dallisgrass (dallisgrass; 16 g ai/ha): 90
- Plant response rating, Dallisgrass (dallisgrass; 31 g ai/ha): 100
- Plant response rating, Dallisgrass (dallisgrass; 62 g ai/ha): 100
- Plant response rating, Dallisgrass (dallisgrass; 125 g ai/ha): 100
- Plant response rating, Dallisgrass (dallisgrass; 250 g ai/ha): 100
- Plant response rating, Barnyardgrass (barnyardgrass; 16 g ai/ha): 70
- Plant response rating, Barnyardgrass (barnyardgrass; 31 g ai/ha): 100
- Plant response rating, Barnyardgrass (barnyardgrass; 62 g ai/ha): 100
- Plant response rating, Barnyardgrass (barnyardgrass; 125 g ai/ha): 100
- Plant response rating, Barnyardgrass (barnyardgrass; 250 g ai/ha): 100
- Plant response rating, Sowthistle (sowthistle; 16 g ai/ha): 100
- Plant response rating, Sowthistle (sowthistle; 31 g ai/ha): 100
- Plant response rating, Sowthistle (sowthistle; 62 g ai/ha): 100
- Plant response rating, Sowthistle (sowthistle; 125 g ai/ha): 100
- Plant response rating, Sowthistle (sowthistle; 250 g ai/ha): 100
- Plant response rating, Ryegrass, Italian (Italian ryegrass; 16 g ai/ha): 35
- Plant response rating, Ryegrass, Italian (Italian ryegrass; 31 g ai/ha): 95
- Plant response rating, Ryegrass, Italian (Italian ryegrass; 62 g ai/ha): 98
- Plant response rating, Ryegrass, Italian (Italian ryegrass; 125 g ai/ha): 100
- Plant response rating, Ryegrass, Italian (Italian ryegrass; 250 g ai/ha): 100
- Plant response rating, Signalgrass (signalgrass; 16 g ai/ha): 95
- Plant response rating, Signalgrass (signalgrass; 31 g ai/ha): 100
- Plant response rating, Signalgrass (signalgrass; 62 g ai/ha): 100
- Plant response rating, Signalgrass (signalgrass; 125 g ai/ha): 100
- Plant response rating, Signalgrass (signalgrass; 250 g ai/ha): 100
- Plant response rating, Bluegrass (bluegrass; 16 g ai/ha): 50
- Plant response rating, Bluegrass (bluegrass; 31 g ai/ha): 80
- Plant response rating, Bluegrass (bluegrass; 62 g ai/ha): 98
- Plant response rating, Bluegrass (bluegrass; 125 g ai/ha): 98
- Plant response rating, Bluegrass (bluegrass; 250 g ai/ha): 100
- Plant response rating, Quackgrass (quackgrass; 16 g ai/ha): 50
- Plant response rating, Quackgrass (quackgrass; 31 g ai/ha): 70
- Plant response rating, Quackgrass (quackgrass; 62 g ai/ha): 98
- Plant response rating, Quackgrass (quackgrass; 125 g ai/ha): 100
- Plant response rating, Quackgrass (quackgrass; 250 g ai/ha): 100
- Plant response rating, Mallow (mallow; 16 g ai/ha): 60
- Plant response rating, Mallow (mallow; 31 g ai/ha): 100
- Plant response rating, Mallow (mallow; 62 g ai/ha): 98
- Plant response rating, Mallow (mallow; 125 g ai/ha): 100
- Plant response rating, Mallow (mallow; 250 g ai/ha): 100
- Plant response rating, Buckwheat, Wild (buckwheat, wild; 16 g ai/ha): 90
- Plant response rating, Buckwheat, Wild (buckwheat, wild; 31 g ai/ha): 100
- Plant response rating, Buckwheat, Wild (buckwheat, wild; 62 g ai/ha): 100
- Plant response rating, Buckwheat, Wild (buckwheat, wild; 125 g ai/ha): 100
- Plant response rating, Buckwheat, Wild (buckwheat, wild; 250 g ai/ha): 100
- Plant response rating, Leafy Spurge (leafy spurge; 16 g ai/ha): 100
- Plant response rating, Leafy Spurge (leafy spurge; 31 g ai/ha): 95
- Plant response rating, Leafy Spurge (leafy spurge; 62 g ai/ha): 100
- Plant response rating, Leafy Spurge (leafy spurge; 125 g ai/ha): 100
- Plant response rating, Leafy Spurge (leafy spurge; 250 g ai/ha): 100
- Plant response rating, Chickweed (chickweed; 16 g ai/ha): 100
- Plant response rating, Chickweed (chickweed; 31 g ai/ha): 100
- Plant response rating, Chickweed (chickweed; 62 g ai/ha): 100
- Plant response rating, Chickweed (chickweed; 125 g ai/ha): 100
- Plant response rating, Chickweed (chickweed; 250 g ai/ha): 100
- Plant response rating, Poinsettia, Wild (wild poinsettia; 16 g ai/ha): 25
- Plant response rating, Poinsettia, Wild (wild poinsettia; 31 g ai/ha): 65
- Plant response rating, Poinsettia, Wild (wild poinsettia; 62 g ai/ha): 100
- Plant response rating, Poinsettia, Wild (wild poinsettia; 125 g ai/ha): 100
- Plant response rating, Poinsettia, Wild (wild poinsettia; 250 g ai/ha): 100
- Plant response rating, Pigweed (pigweed; 16 g ai/ha): 100
- Plant response rating, Pigweed (pigweed; 31 g ai/ha): 100
- Plant response rating, Pigweed (pigweed; 62 g ai/ha): 100
- Plant response rating, Pigweed (pigweed; 125 g ai/ha): 100
- Plant response rating, Pigweed (pigweed; 250 g ai/ha): 100
